Experimental data taken from patent US7018989B2, “Chemical compounds” (University College Cardiff Consultants, LTD, priority 1995, dated 2006).
Like-named read-outs stand apart in the source and are kept apart here.

Assays:
CEM cells = assay: Toxicity to CEM cells; format: cell-based, human
Method: (§1) Cells were infected with HIV-1 as previously described [Balzarini et al. AIDS (1991), 5, 21–28]. Briefly, 5×10^5 cells per milliliter were infected with HIV-1 or HIV-2 at 100 CCID50 (50% cell culture infective dose) per milliliter of cell suspension. Then 100 μL of the infected cell suspension was transferred to microtiter plate wells and mixed with 100 μL of the appropriate dilutions of the test compounds. After 4 days giant cell formation was recorded microscopically in the HIV-infected cell cultures [CEM], and after 5 days the number of viable cells was determined by trypan blue staining of the HIV-infected cell cultures [MT4].
(§2) The data columns are, in order: • HIV1 MT4: EC50 in μM for inhibition of HIV-1 in MT4 cells. • HIV2 MT4: EC50 in μM for inhibition of HIV-2 in MT4 cells. • CC50 MT4: CC50 in μM for toxicity to MT-4 cells. • HIV1 CEM: EC50 in μM for inhibition of HIV-1 in CEM cells. • HIV2 CEM: EC50 in μM for inhibition of HIV-2 in CEM cells. • HIV2 CEM-TK-: EC50 in μM for inhibition of HIV-2 in CEM/TK^− cells. • CC50 CEM: CC50 in μM for toxicity to CEM cells. • EC50 MSV: EC50 in μM for inhibition of MSV • MCC MSV: Minimum cytotoxic concentration in MSV assay

HIV-2 [1] = assay: Inhibition of HIV-2 in CEM cells (giant cell formation); format: cell-based; conditions: read-out: HIV2 CEM: EC50 for inhibition of HIV-2 in CEM cells
Method: as §1, §2

HIV-2 [2] = assay: Inhibition of HIV-2 in CEM/TK- cells; format: cell-based
Method: as §1, §2

HIV-1 = assay: microbe, parasite or virus in culture; conditions: read-out: HIV1 CEM: EC50 for inhibition of HIV-1 in CEM cells
Method: as §1, §2

[3] = Minimum cytotoxic concentration in MSV assay; format: cell-based
Text: as §2, with “CEM/TK^-” for “CEM/TK^−”, “[…]:” for “MSV • MCC MSV:”

MSV = assay: Inhibition of MSV (in vitro); format: cell-based, Moloney Sarcoma Virus
Text: as §2

[4] = Table 6, mean of two or more repeat experiments
[5] = Table 6, mean of two or more repeat experiments, read-out: HIV2 CEM-TK-: EC50 for inhibition of HIV-2 in CEM/TK^− cells
[6] = CEM/TK- cells, HIV-2, read-out: HIV2 CEM-TK-: EC50 for inhibition of HIV-2 in CEM/TK- cells

Compound	CC50 (CEM cells; [4]) [µM]	EC50 (HIV-2 [1]; [4]) [µM]	EC50 (HIV-2 [2]; [5]) [µM]	CC50 (CEM cells; CEM cells) [µM]	EC50 (HIV-2 [1]; CEM cells, HIV-2) [µM]	EC50 (HIV-1; CEM cells, HIV-1) [µM]	EC50 (HIV-1; [4]) [µM]	also measured
Cc1cn(C2C=CC(COP(=O)(Oc3ccccc3)Oc3ccccc3)O2)c(=O)[nH]c1=O (stereo not shown) [Compound 880]	≥ 250	25	75	–	–	–	–	–
CCCCCCOP(=O)(O)OCC1OC(n2cc(C)c(=O)[nH]c2=O)CC1N=[N+]=[N-] (stereo not shown) [Cpd 857]	–	–	–	> 250	10	5	–	EC50 (HIV-2 [2]; [6]): > 250 µM
CCCCCCNP(=O)(OCC1C=CC(n2cc(C)c(=O)[nH]c2=O)O1)Oc1ccccc1 (stereo not shown) [Compound 859]	145	> 50	> 50	–	–	–	> 50	–
COC(=O)C1CCCN1P(=O)(OCC1C=CC(n2cc(C)c(=O)[nH]c2=O)O1)Oc1ccccc1 (stereo not shown) [Compound 879]	42.5	> 10	> 10	–	–	–	> 10	–
Cc1cn(C2C=CC(COP(=O)(O)NC(C)C(=O)OCc3ccccc3)O2)c(=O)[nH]c1=O (stereo not shown) [Compound 1137]	≥ 250	1.6	8	–	–	–	0.95	MCC MSV: Minimum cytotoxic concentration in MSV assay ([3]; Table 6): >100; EC50 (MSV; Table 6): 15.7 µM
CCOC(=O)C(C)NP(=O)(OCC1C=CC(n2cc(C)c(=O)[nH]c2=O)O1)Oc1ccccc1 (stereo not shown) [Compound 951]	55	0.07	–	–	–	–	0.1	MCC MSV: Minimum cytotoxic concentration in MSV assay ([3]; Table 6): >100; EC50 (MSV; Table 6): 25 µM
COC(=O)CC(NP(=O)(OCC1C=CC(n2cc(C)c(=O)[nH]c2=O)O1)Oc1ccccc1)C(=O)OC (stereo not shown) [Compound 1078]	209	0.65	0.33	–	–	–	0.55	MCC MSV: Minimum cytotoxic concentration in MSV assay ([3]; Table 6): >100; EC50 (MSV; Table 6): 31.4 µM
CCO[PH](=O)OCC1C=CC(n2cc(C)c(=O)[nH]c2=O)O1 (stereo not shown) [Compound 788]	115	0.6	30	–	–	–	0.65	–
Cc1cn(C2CC(N=[N+]=[N-])C(COP(=O)(O)NC(C)C(=O)O)O2)c(=O)[nH]c1=O (stereo not shown) [Cpd 1071]	–	–	–	> 250	10	115	–	MCC MSV: Minimum cytotoxic concentration in MSV assay ([3]; MSV assay): >100; EC50 (HIV-2 [2]; [6]): 250 µM; EC50 (MSV; MSV): > 250 µM
CCCNP(=O)(OCC1C=CC(n2cc(C)c(=O)[nH]c2=O)O1)Oc1ccccc1 (stereo not shown) [Compound 858]	> 250	> 250	> 250	–	–	–	> 250	–
Nc1ncnc2c1ncn2C1CCC(CO)O1 (stereo not shown) [Cpd 1069]	–	–	–	> 250	8	4	–	MCC MSV: Minimum cytotoxic concentration in MSV assay ([3]; MSV assay): >100; EC50 (HIV-2 [2]; [6]): 17.5 µM; EC50 (MSV; MSV): 24.3 µM
COC(=O)C(C)NP(=O)(OCC1OC(n2cc(C)c(=O)[nH]c2=O)CC1N=[N+]=[N-])Oc1ccc(Br)cc1Br (stereo not shown) [Cpd 777]	–	–	–	55	0.55	0.5	–	EC50 (HIV-2 [2]; [6]): 0.19 µM
COCCOCCO[PH](=O)OCC1C=CC(n2cc(C)c(=O)[nH]c2=O)O1 (stereo not shown) [Compound 787]	144	0.95	45	–	–	–	0.65	–
CCCCCCCCn1c(=O)c(C)cn(C2CC(N=[N+]=[N-])C(COP(=O)(NC(C)C(=O)OC)Oc3ccccc3)O2)c1=O (stereo not shown) [Cpd 774]	–	–	–	15	> 10	> 10	–	–
CCCCCCCCO[PH](=O)OCC1C=CC(n2cc(C)c(=O)[nH]c2=O)O1 (stereo not shown) [Compound 791]	90	0.6	23	–	–	–	0.4	–
CCCCCCOP(=O)(OCCC#N)OCC1OC(n2cc(C)c(=O)[nH]c2=O)CC1N=[N+]=[N-] (stereo not shown) [Cpd 856]	–	–	–	> 250	25	13	–	EC50 (HIV-2 [2]; [6]): > 250 µM
CC(NP(=O)(OCC1C=CC(n2ccc(=O)[nH]c2=O)O1)Oc1ccccc1)C(=O)OCc1ccccc1 (stereo not shown) [Compound 849]	115	15	10	–	–	–	23	–
CCCCNP(=O)(OCC1C=CC(n2cc(C)c(=O)[nH]c2=O)O1)Oc1ccccc1 (stereo not shown) [Compound 840]	> 250	100	125	–	–	–	140	–

Compound	CC50 (CEM cells; [4]) [µM]	EC50 (HIV-2 [1]; [4]) [µM]	EC50 (HIV-2 [2]; [5]) [µM]	CC50 (CEM cells; CEM cells) [µM]	EC50 (HIV-2 [1]; CEM cells, HIV-2) [µM]	EC50 (HIV-1; CEM cells, HIV-1) [µM]	EC50 (HIV-1; [4]) [µM]	also measured
CCCCCCCCCCO[PH](=O)OCC1C=CC(n2cc(C)c(=O)[nH]c2=O)O1 (stereo not shown) [Compound 789]	64	0.65	40	–	–	–	–	–
CCCCCCCCCCCCNP(=O)(OCC1C=CC(n2cc(C)c(=O)[nH]c2=O)O1)Oc1ccccc1 (stereo not shown) [Compound 828]	14	> 10	–	–	–	–	> 10	–
Cc1cn([C@H]2C=C[C@@H](COP(=O)(O)O)O2)c(=O)[nH]c1=O [Compound 775]	174	0.95	33	–	–	–	0.8	–
Cc1cn(C2C=CC(COP(=O)(O)Oc3ccccc3)O2)c(=O)[nH]c1=O (stereo not shown) [Compound 853]	153	0.7	23	–	–	–	0.65	–
Cc1cn(C2CC(N=[N+]=[N-])C(COP(=O)(O)OCC(F)(F)F)O2)c(=O)[nH]c1=O (stereo not shown) [Cpd 855]	–	–	–	> 250	17.5	17.5	–	EC50 (HIV-2 [2]; [6]): > 250 µM
COC(=O)C(C)NP(=O)(OC)OCC1OC(n2cc(C)c(=O)[nH]c2=O)CC1N=[N+]=[N-] (stereo not shown) [Cpd 739]	–	–	–	> 250	18	10	–	EC50 (HIV-2 [2]; [6]): > 250 µM
COC(=O)C(Cc1ccccc1)NP(=O)(OCC1OC(n2cc(C)c(=O)[nH]c2=O)CC1N=[N+]=[N-])Oc1ccccc1 (stereo not shown) [Cpd 941]	–	–	–	115	> 50	> 50	–	MCC MSV: Minimum cytotoxic concentration in MSV assay ([3]; MSV assay): >100; EC50 (MSV; MSV): > 100 µM
COC(=O)C(C)NP(=O)(OCC1OC(n2cc(C)c(=O)[nH]c2=O)CC1N=[N+]=[N-])Oc1c(F)c(F)c(F)c(F)c1F (stereo not shown) [Cpd 780]	–	–	–	106	33	23	–	EC50 (HIV-2 [2]; [6]): 100 µM
Cc1cn([C@H]2C=C[C@@H](COP(=O)(O)NCC(=O)O)O2)c(=O)[nH]c1=O [Compound 1163, 2′,3′-dideoxy-2′,3′-didehydrothymidine 5′-(glycinyl phosphate)]	> 250	5	130	–	–	–	2	–
Cc1cn(C2CC(N=[N+]=[N-])C(COP(=O)(OCCC#N)OCC(F)(F)F)O2)c(=O)[nH]c1=O (stereo not shown) [Cpd 847]	–	–	–	> 250	9	12	–	EC50 (HIV-2 [2]; [6]): > 250 µM
CCCCCCCCNP(=O)(OCC1C=CC(n2cc(C)c(=O)[nH]c2=O)O1)Oc1ccccc1 (stereo not shown) [Compound 829]	23	≥ 10	–	–	–	–	> 10	–
CCCCCCO[PH](=O)OCC1C=CC(n2cc(C)c(=O)[nH]c2=O)O1 (stereo not shown) [Compound 786]	150	0.5	30	–	–	–	0.6	–
CCNP(=O)(OCC1C=CC(n2cc(C)c(=O)[nH]c2=O)O1)OCC(Cl)(Cl)Cl (stereo not shown) [Compound 403]	–	> 216	> 218	–	–	–	> 216	–
CCCCCCOP(=O)(OCCCCCC)OCC1C=CC(n2cc(C)c(=O)[nH]c2=O)O1 (stereo not shown) [Compound 321]	36	> 42	> 42	–	–	–	> 42	–
Cc1cn(C2CC(N=[N+]=[N-])C(COP(=O)(OCCC#N)Oc3ccccc3)O2)c(=O)[nH]c1=O (stereo not shown) [Cpd 846]	–	–	–	> 250	14	13	–	EC50 (HIV-2 [2]; [6]): > 250 µM
CO[PH](=O)OCC1C=CC(n2cc(C)c(=O)[nH]c2=O)O1 (stereo not shown) [Compound 817]	146	0.55	20	–	–	–	0.7	–
Cc1cn(C2C=CC(COP(=O)(OCCC#N)Oc3ccccc3)O2)c(=O)[nH]c1=O (stereo not shown) [Compound 861]	≥ 250	0.95	17.5	–	–	–	1.2	–
CCCCO[PH](=O)OCC1C=CC(n2cc(C)c(=O)[nH]c2=O)O1 (stereo not shown) [Compound 790]	177	0.9	30	–	–	–	0.65	–
